Test results as given in ChEMBL document CHEMBL6134813, “Arctigenin derivative TZOA restores mitochondrial homeostasis to combat rhabdovirus infections” (Eur J Med Chem, 2025).
Activity calls are given as the source filed them. The calls are words filed in the database; no cut-off is given here.

Experiments:
[1] = tested on: Infectious hematopoietic necrosis virus; assay: Antiviral activity against IHNV infected in juvenile rainbow trout assessed as increase in ISG15 gene expression in kidney administered intraperitoneally measured after 2 days by RT-qPCR analysis; assay type: functional, organism-based; conditions: route ip, time 2.0 day
[2] = tested on: Infectious hematopoietic necrosis virus; assay: Antiviral activity against IHNV infected in juvenile rainbow trout assessed as increase in IRF3 gene expression in spleen administered intraperitoneally measured after 2 days by RT-qPCR analysis; assay type: functional, organism-based; conditions: route ip, time 2.0 day
[3] = tested on: Infectious hematopoietic necrosis virus; assay: Antiviral activity against IHNV infected in EPC cells (unknown origin) assessed as inhibition of viral N gene expression measured after 72 hrs by RT-qPCR analysis; assay type: functional, organism-based; conditions: dose 0.1-100 µM
[4] = tested on: Infectious hematopoietic necrosis virus; assay: Antiviral activity against IHNV infected in EPC cells (unknown origin) assessed as reduction in cytopathic effect at 25 uM pretreated virus with compound for 1 to 2 hrs followed by compound-treated virus infection in EPC cells measured after 72 hrs by RT-qPCR analysis; assay type: functional, organism-based; conditions: time 1-2 hrs
[5] = tested on: Infectious hematopoietic necrosis virus; assay: Antiviral activity against IHNV infected in EPC cells (unknown origin) assessed as inhibition of viral M gene expression at 25 uM measured after 72 hrs by RT-qPCR analysis relative to control; assay type: functional
[6] = tested on: Infectious hematopoietic necrosis virus; assay: Antiviral activity against IHNV infected in EPC cells (unknown origin) assessed as inhibition of viral G gene expression at 25 uM measured after 72 hrs by RT-qPCR analysis relative to control; assay type: functional
[7] = tested on: Infectious hematopoietic necrosis virus; assay: Antiviral activity against IHNV infected in EPC cells (unknown origin) assessed as minimal number of apoptotic bodies within observed area at 25 uM measured after 72 hrs by fluorescence microscopy; assay type: functional, organism-based
[8] = Cytotoxicity against EPC cells (unknown origin) assessed as cell viability at 64 uM measured after 72 hrs by CCK8 assay; assay type: toxicity, cell-based
[9] = tested on: Infectious hematopoietic necrosis virus; assay: Antiviral activity against IHNV infected in juvenile rainbow trout assessed as increase in ISG15 gene expression in spleen administered intraperitoneally measured after 2 days by RT-qPCR analysis; assay type: functional, organism-based; conditions: route ip, time 2.0 day
[10] = tested on: Infectious hematopoietic necrosis virus; assay: Antiviral activity against IHNV infected in EPC cells (unknown origin) assessed as inhibition of viral G gene expression measured after 72 hrs by RT-qPCR analysis; assay type: functional, organism-based; conditions: dose 0.1-100 µM
[11] = tested on: Infectious hematopoietic necrosis virus; assay: Antiviral activity against IHNV infected in EPC cells (unknown origin) assessed as cristae of varying lengths with attached granules in inner membrane of mitochondria by TEM analysis; assay type: functional, organism-based
[12] = tested on: Infectious hematopoietic necrosis virus; assay: Antiviral activity against IHNV infected in EPC cells (unknown origin) assessed as area of mitochondria by TEM analysis (reference value: 0.05 to 0.2 um2); assay type: functional
[13] = tested on: Infectious hematopoietic necrosis virus; assay: Antiviral activity against IHNV infected in juvenile rainbow trout assessed as decrease in viral G gene expression in spleen administered intraperitoneally measured after 1 to 4 days by RT-qPCR analysis; assay type: functional, organism-based; conditions: route ip, time 1-4 day
[14] = tested on: Infectious hematopoietic necrosis virus; assay: Antiviral activity against IHNV infected in juvenile rainbow trout assessed as increase in IFN-1 gene expression in spleen administered intraperitoneally measured after 2 days by RT-qPCR analysis; assay type: functional, organism-based; conditions: route ip, time 2.0 day
[15] = tested on: Infectious hematopoietic necrosis virus; assay: Antiviral activity against IHNV infected in juvenile rainbow trout assessed as decrease in viral titer in recipient fishes on horizontal transmission between virus-infected donor fishes and non-infected recipient fishes at 25 uM immersed together in compound for 48 hrs; assay type: functional, organism-based
[16] = Cytotoxicity against EPC cells (unknown origin) assessed as cell viability up to 25 uM measured after 72 hrs by CCK8 assay; assay type: toxicity, cell-based
[17] = tested on: Infectious hematopoietic necrosis virus; assay: Antiviral activity against IHNV infected in EPC cells (unknown origin) assessed as reduction in viral load for internalization at 25 uM incubated for 1 hr at 4 degreeC followed by 2 hrs of incubation at 25 degreeC by RT-qPCR analysis relative to control; assay type: functional; set-up: scale not given: the % may be the effect or the level left; conditions: time 3 hrs
[18] = tested on: Infectious hematopoietic necrosis virus; assay: Antiviral activity against IHNV infected in EPC cells (unknown origin) assessed as decrease in virus-induced number of individual mitochondria per cell at 25 uM incubated for 72 hrs by Mito-Tracker dye based analysis; assay type: functional, organism-based
[19] = tested on: Infectious hematopoietic necrosis virus; assay: Antiviral activity against IHNV infected in EPC cells (unknown origin) assessed as inhibition of viral N gene expression at 25 uM measured after 72 hrs by RT-qPCR analysis relative to control; assay type: functional
[20] = tested on: Infectious hematopoietic necrosis virus; assay: Antiviral activity against IHNV infected in EPC cells (unknown origin) assessed as reduction in viral G protein expression at 25 uM pretreated virus with compound for 1 hr followed by compound-treated virus infection in EPC cells measured after 72 hrs by RT-qPCR analysis relative to control; assay type: functional; set-up: scale not given: the % may be the effect or the level left
[21] = tested on: Infectious hematopoietic necrosis virus; assay: Antiviral activity against IHNV infected in EPC cells (unknown origin) assessed as elongated rod-shaped mitochondria with double layered membrane by TEM analysis; assay type: functional, organism-based
[22] = tested on: Infectious hematopoietic necrosis virus; assay: Antiviral activity against IHNV infected in EPC cells (unknown origin) assessed as reversal of chromatin condensation at 25 uM measured after 72 hrs by fluorescence microscopy; assay type: functional, organism-based
[23] = tested on: Infectious hematopoietic necrosis virus; assay: Antiviral activity against IHNV infected in juvenile rainbow trout assessed as decrease in erythrocytes in kidney administered intraperitoneally measured after 2 days by H and E staining based analysis; assay type: functional, organism-based; conditions: route ip, time 2.0 day
[24] = tested on: Infectious hematopoietic necrosis virus; assay: Antiviral activity against IHNV infected in juvenile rainbow trout assessed as increase in Mx1 gene expression in spleen administered intraperitoneally measured after 2 days by RT-qPCR analysis; assay type: functional, organism-based; conditions: route ip, time 2.0 day
[25] = tested on: Infectious hematopoietic necrosis virus; assay: Antiviral activity against IHNV infected in EPC cells (unknown origin) assessed as inhibition of viral replication at 25 uM pre-infected with virus for 6 hrs followed by compound addition measured after 72 hrs by RT-qPCR analysis relative to control; assay type: functional
[26] = tested on: Infectious hematopoietic necrosis virus; assay: Antiviral activity against IHNV infected in EPC cells (unknown origin) assessed as uniform shaped nuclei at 25 uM measured after 72 hrs by fluorescence microscopy; assay type: functional, organism-based
[27] = tested on: Infectious hematopoietic necrosis virus; assay: Antiviral activity against IHNV infected in juvenile rainbow trout assessed as increase in IFN-1 gene expression in kidney administered intraperitoneally measured after 2 days by RT-qPCR analysis; assay type: functional, organism-based; conditions: route ip, time 2.0 day
[28] = tested on: Infectious hematopoietic necrosis virus; assay: Antiviral activity against IHNV infected in EPC cells (unknown origin) assessed as dense monolayer arrangement in host cells at 25 uM pretreated virus with compound for 4 hrs followed by compound-treated virus infection in EPC cells measured after 72 hrs by microscopic analysis; assay type: functional, organism-based
[29] = tested on: Infectious hematopoietic necrosis virus; assay: Antiviral activity against IHNV infected in EPC cells (unknown origin) assessed as inhibition of viral replication at 25 uM preincubated for 24 hrs followed by viral infection measured after 72 hrs by RT-qPCR analysis; assay type: functional, organism-based; conditions: time 96.0 hrs
[30] = tested on: Infectious hematopoietic necrosis virus; assay: Antiviral activity against IHNV infected in EPC cells (unknown origin) assessed as reduction in cytopathic effect at >4 uM measured after 72 hrs by RT-qPCR analysis; assay type: functional, organism-based

SMILES: COc1ccc(C[C@H]2COC(=O)[C@@H]2Cc2ccc(OCCCCCCCCn3cncn3)c(OC)c2)cc1OC
- Activity [1]: Active
- Activity [2]: Active
- inhibition [3]: Dose-dependent-effect
- Activity [4]: Active
- inhibition at 25 µM [5]: > 90%
- inhibition at 25 µM [6]: > 90%
- Activity [7]: Active
- Activity [8]: Toxic
- Activity [9]: Active
- inhibition [10]: Dose-dependent-effect
- Activity [11]: Active
- Activity [12]: 0.2 um2
- Activity [13]: Active
- Activity [14]: Active
- Activity [15]: Active
- Activity [16]: Non-toxic
- Activity [17]: 46%
- Activity [18]: Active
- inhibition at 25 µM [19]: > 90%
- Activity [20]: 10%
- Activity [21]: Active
- Activity [22]: Active
- Activity [23]: Active
- Activity [24]: Active
- inhibition at 25 µM [25]: 80%
- Activity [26]: Active
- Activity [27]: Active
- Activity [28]: Active
- inhibition [29]: Active
- Activity [30]: Active
